Measurements from patent US5244916A, “Inhibition of respiratory burst using posttranslational modification inhibitors” (The Scripps Research Institute, priority 1992, dated 1993).
Where two headings read alike, the source gives them in different places.

Columns and labels:
[1] = tested on: HL-60 cells (NADPH oxidase / respiratory burst); assay: O2- formation by DMSO-differentiated HL-60 cells, FMLP-stimulated (SOD-sensitive cytochrome c reduction); type: cell-based; conditions: for activity at 0.4 µM / activity at 2 µM / activity at 4 µM / activity at 10 µM: Homo sapiens, HL-60; for activity at 0.4 µM: 0.4 μM compactin; for activity at 2 µM: 2 μM compactin; for activity at 4 µM: 4 μM compactin; for activity at 10 µM: 10 μM compactin
Description: (§1) HL-60 cells were maintained in stationary culture in RPMI 1640 medium (Gibco, Grand Island, NY) containing 10% fetal bovine serum at 37° C in an atmosphere of 95 air and 5% CO2. The cells (about 8×10^5 /ml) were differentiated into neutrophil-like cells by treatment with 1.3% DMSO for six days (Harris, et al., J. Leukocyte Biol. 37: 407-422 (1985)). The cells were treated with the indicated levels of compactin or lovastatin by addition of a 1,000-fold concentrated stock solution to the appropriate concentration on day 4 of differentiation. […] In studies of the protective effect of mevalonic acid, the compound was added as the mevalonolactone (Sigma Chemical Co., St. Louis, MO) at a concentration of 1 mM to the cell culture on days 4 to 6. Similarly, cholesterol was added in the form of LDL prepared according to the method of Curtiss and Edgington (Curtiss, et al., J. Biol. Chem. 257: 15213-15221 (1991)) at a final concentration of 50 μg/ml; ubiquinone (Sigma Chemical Co., St. Louis, MO) was added as Coenzyme Q-10 at a final concentration of 0.5 mM; and dolichol (Sigma Chemical Co., St. Louis, MO) was added as a dispersion in phosphatidylcholine at a final concentration of 0.5 mM (Cutts, et al., J. Cell Physiol. 139: 550-555 (1989)).
O2 --formation by HL-60 cells was assessed by the SOD-sensitive reduction of cytochrome c. Cells were suspended at 1×10^7 /ml in Krebs-Ringer Hepes buffer with 5.5 mM glucose (KRHG) and 50-100μl of cells were added to a cuvette containing 100 μM cytochrome c (type III, Sigma Chemical Co., St. Louis, MO), ±300 μg/ml SOD (Sigma Chemical Co., St. Louis, MO) in 700-750 μl KRHG. Cytochalasin b (Sigma Chemical Co., St. Louis, MO) was added to a final concentration of 5 μg/ml, and the cells were incubated at 37° C. for five minutes while a stable baseline at a wavelength of 550 nm was obtained. O2 --formation was initiated by the addition of 1 μM N-formylmethionylleucylphenylalanine (FMLP; Sigma Chemical Co., St. Louis, MO) or 1μg/ml phorbol myristate acetate (PMA; Sigma Chemical Co., St. Louis, MO). Cytochrome c reduction at 550nm was continuously monitored and maximal rate and extent of the reaction calculated.

[2] = tested on: peripheral blood neutrophils; assay: Respiratory burst of peripheral blood neutrophils in response to FMLP after short-term compactin; type: cell-based; conditions: 10 μM, up to two hours
[3] = HL-60 cell viability by propidium iodide uptake (flow cytometry); conditions: human, hl-60 cells
Description: as §1, with “The cells were treated with the indicated levels of compactin or lovastatin by addition of a 1,000-fold concentrated stock solution to the appropriate concentration on day 4 of differentiation.” left out
(§2) Cell viability was determined by uptake of propidium iodide (537-059; Calbiochem-Behring Corp., La Jolla, CA), detected from the emission fluorescence at 625/35 nm using a DM560 dichronic mirror (Krishan, J. Cell. Biol. 66: 188-192 (1975)). Expression of N-formyl peptide receptor was determined using fluorescein-labeled N-CHONle-Leu-Phe-Nle-Tyr-Lys (Molecular Probes, Inc., Eugene, OR) essentially by the method of Sklar and Finney (Sklar and Finney, Cytometry 3: 161-165 (1982)). Specificity of ligand binding was determined in the presence of 4 mM unlabeled T-boc peptide. CD14 expression was determined using monoclonal antibody 3C10 at a dilution of 1:1,000 (see Goyert and Ferrero, in Leucocyte Typing III: White Cell Differentiation Antigens, McMichael, ed., Oxford Univ. Press, NY, pp. 613-619 (1988)), with detection using a fluorescein-labeled secondary antibody. Flow cytometric analyses were performed on a FACSIV (registered trademark of Becton-Dickinson, San Jose, CA) equipped with a 2W argon laser (Coherent Inc., Palo Alto, collected in list mode and analyzed using the Consort 30 program (Becton-Dickinson, San Jose, CA) after collecting 10,000 events.

HL-60 cells = assay: as above
Description: as §1, with “The cells were treated with the indicated levels of compactin or lovastatin by addition of a 1,000-fold concentrated stock solution to the appropriate concentration on day 4 of differentiation.” left out
as §2

[4] = read-out: FMLP-stimulated O2- formation, Extent
[5] = read-out: FMLP-stimulated O2- formation, Rate

Compound: CC[C@H](C)C(=O)O[C@H]1CCC=C2C=C[C@H](C)[C@H](CC[C@@H]3C[C@@H](O)CC(=O)O3)[C@H]21 [compactin]
- activity at 0.4 µM [1, 4]: 71 ± 10%
- activity at 0.4 µM [1, 5]: 77 ± 10%
- activity at 2 µM [1, 4]: 36 ± 11%
- activity at 2 µM [1, 5]: 47 ± 11%
- activity at 4 µM [1, 4]: 22 ± 1%
- activity at 4 µM [1, 5]: 39 ± 4.1%
- activity at 10 µM [1, 4]: 12 ± 2.1%
- activity at 10 µM [1, 5]: 15 ± 2.6%
- inhibition of O2- formation in response to FMLP ([1]; various concentrations): dose-dependent inhibition
- effect on respiratory burst of peripheral blood neutrophils [2]: no effect
- viability at 0.4 µM [3]: 100 ± 1.6%
- viability at 2 µM [3]: 95 ± 1.2%
- viability at 4 µM [3]: 97 ± 0.9%
- viability at 10 µM [3]: 96 ± 1.2%
- HL-60 cell viability (HL-60 cells; compactin treatment, concentrations of the studies): not affected
- cell viability when inhibitor added at day 1 of differentiation (HL-60 cells; higher concentrations of each drug): somewhat decreased
